According to ChEMBL document CHEMBL1149891, “Rationally designed PKA inhibitors for positron emission tomography: Synthesis and cerebral biodistribution of N-(2-(4-bromocinnamylamino)ethyl)-N-[11C]methyl-isoquinoline-5-sulfonamide” (Bioorg Med Chem, 2008):

How the values were obtained:
[1] = Inhibition of PKA
[2] = Biodistribution in tail vein injected Sprague-Dawley rat brain after 5 to 60 mins; assay type: ADME, organism-based; conditions: iv, read-out: Drug uptake
[3] = Partition coefficient, log P in phosphate buffer at pH 7.4; assay type: physicochemical

Structure (SMILES) | IC50 [1] | tissue uptake [2] | logD [3]
CN(CCNC/C=C/c1ccc(Br)cc1)S(=O)(=O)c1cccc2cnccc12 | 1.28 µM | < 0.2 %ID/g | 2.93
O=S(=O)(NCCNC/C=C/c1ccc(Br)cc1)c1cccc2cnccc12 | 0.94 µM | – | –
